Results: patent publication US20260131007A1, “Mannose 6-Phosphate Receptor Binding Compounds for the Degradation of Extracellular Proteins” (Avilar Therapeutics, Inc., priority 2023, published 2026)

The compounds below were run against T1, Insulin-like growth factor 2 receptor (IGF-1IR, cation-independent mannose-6-phosphate receptor, CI-MPR; hIGF-IIR) (Homo sapiens, UniProt P11717) (assay: HTRF-based ternary complex inhibition assay for relative affinity of IGF-IIR ligands). Details: competition with MTAC probe for His-tagged hIGF-IIR; biotinylated IgG1; apparent binding affinity; read-out: TCF INH (HTRF) IC50.
T1 construct: purchased R&D Systems 6418-GR
Experimental: The apparent binding affinity of Insulin-like growth factor 2 receptor (IGF-1IR, also called the cation- independent mannose-6-phosphate receptor (CI-MPR)) ligands was determined indirectly by competing with a probe molecule for binding to IGF-1IR. The probe is a Mannose 6-Phosphate Ligand (“Ligand”) and binds to hIGF-IIR and IgG1 to form a hIGF-IIR: Ligand: IgG1 ternary complex. The ternary complex was detected by an HTRF readout. The ternary complex is disrupted in the presence of IGF-1IR ligand, resulting in decreased HTRF signal. IGF-1IR ligands of 3-fold dilution series were prepared from 10 mM DMSO stock on a 384-well LDV microplate using Echo Acoustic Liquid Handler (Beckman Coulter Life Sciences) followed by transfer of 600 nL of the solutions to an OptiPlate 384-well microplate (PerkinElmer, 6007290). Manose-6-phosphate (M6P; J&K, 530168) and glucose-6-phosphate (G6P; Sigma, V900924) were prepared from 100 mM stock in the same manner and were used as positive and negative controls, respectively. The wells used as 0% and 100% inhibition controls were prepared by adding 600 nL DMSO. 20 nL of 50 μM MTAC probe was transferred to all wells except the wells used as 100% Inhibition control. 9.4 μL working solution containing 65.1 nM of Biotinylated-IgG1 (Viva 20211108) and 65.1 nM of His-tagged hIGF-IIR (R&D Systems, 6418-GR) in assay buffer 50 mM Tris, pH 7.5, 150 mM NaCl, 50 mM CaCl2, 0.01% Tween-20 was transferred to all wells. The plate was incubated at room temperature for 60 min with gentle shaking to allow molecular interaction to reach equilibration. Following this, 10 μL of HTRF detection solution containing 15 nM Streptavidin-d2 (PerkinElmer, 610SADLA) and 0.7 nM MAb Anti 6HIS—Tb cryptate (PerkinElmer, 61HISTLA) in PPI Terbium detection buffer (PerkinElmer, 61DB10RDF) was added. The assay plate was incubated at room temperature with gentle shaking for 60 min to allow HTRF signal to develop. The plate was gently spun on a centrifuge then placed on a EnVision plate reader (Perkin Elmer, EnVision 2104) to read fluorescence ratio of 665 nm/615 nm. Percent inhibitions were calculated with this equation: % I=100* [1−(X−100% I/(0% I−100% I)] where X is the […] in the presence of IGF-1IR ligand. The apparent binding affinity (presented as IC50) was calculated by fitting the % inhibition data with a non-linear 4-parameter inhibition equation using GraphPad Prism (GraphPad Software, LLC; version 9.4.1).

Row | Structure (SMILES) | IC50 [µM]
1 | CO[C@H]1O[C@H](CCS(=O)(=O)Nc2ncccn2)[C@@H](O)[C@H](O)[C@@H]1O [Compound A9, N-(pyrimidin-2-yl)-2-((2R,3S,4S,5S,6S)-3,4,5-trihydroxy-6-methoxytetrahydro-2H-pyran-2-yl)ethane-1-sulfonamide] | 100 to 300
2 | COc1ccc(OC2O[C@H](CCP(=O)(O)CC3CC3)[C@@H](O)[C@H](O)[C@@H]2O)cc1 (stereo partly drawn) [Compound A56, (cyclopropylmethyl) (2-((2R,3S,4S,5S)-3,4,5-trihydroxy-6-(4-methoxyphenoxy)tetrahydro-2H-pyran-2-yl)ethyl)phosphinic acid] | < 10
3 | COc1ccc(O[C@H]2O[C@H](CCP(=O)(O)Cc3c(F)ccc(F)c3F)[C@@H](O)[C@H](O)[C@@H]2O)cc1 [Compound A54, (2,3,6-trifluorobenzyl) (2-((2R,3S,4S,5S)-3,4,5-trihydroxy-6-(4-methoxyphenoxy)tetrahydro-2H-pyran-2-yl)ethyl)phosphinic acid] | < 10
4 | CC#CCP(=O)(O)CC[C@H]1OC(Oc2ccc(OC)cc2)[C@@H](O)[C@@H](O)[C@@H]1O (stereo partly drawn) [Compound A53, but-2-yn-1-yl(2-((2R,3S,4S,5S)-3,4,5-trihydroxy-6-(4-methoxyphenoxy)tetrahydro-2H-pyran-2-yl)ethyl)phosphinic acid] | 10 to 100
5 | C#CCCCCNC(=O)Nc1ccc2c(c1)Cc1cc(O[C@H]3O[C@H](CCP(=O)(O)O)[C@@H](O)[C@H](O)[C@@H]3O)ccc1-2 [Compound A83, (2-((2R,3S,4S,5S,6R)-6-((7-(3-(hex-5-yn-1-yl)ureido)-9H-fluoren-2-yl)oxy)-3,4,5-trihydroxytetrahydro-2H-pyran-2-yl)ethyl)phosphonic acid] | < 10
6 | COc1ccc(OC2O[C@H](CCP(=O)(O)CC#N)[C@@H](O)[C@H](O)[C@@H]2O)cc1 (stereo partly drawn) [Compound A48, (cyanomethyl) (2-((2R,3S,4S,5S)-3,4,5-trihydroxy-6-(4-methoxyphenoxy)tetrahydro-2H-pyran-2-yl)ethyl)phosphinic acid] | 10 to 100
7 | N#CNC(=O)CC[C@H]1O[C@H](Oc2ccccc2)[C@@H](O)[C@@H](O)[C@@H]1O [Compound A3, N-cyano-3-((2R,3S,4S,5S,6R)-3,4,5-trihydroxy-6-phenoxytetrahydro-2H-pyran-2-yl)propanamide] | 10 to 100
8 | O=C(NS(=O)(=O)CC[C@H]1O[C@H](O)[C@@H](O)[C@@H](O)[C@@H]1O)c1ccno1 [Compound A11, N-((2-((2R,3S,4S,5S,6S)-3,4,5,6-tetrahydroxytetrahydro-2H-pyran-2-yl)ethyl)sulfonyl)isoxazole-5-carboxamide] | 10 to 100
9 | CC(=O)NS(=O)(=O)OC[C@H]1O[C@H](Oc2ccccc2)[C@@H](O)[C@@H](O)[C@@H]1O [Compound A4, ((2R,3S,4S,5S,6R)-3,4,5-trihydroxy-6-phenoxytetrahydro-2H-pyran-2-yl)methyl acetylsulfamate] | 100 to 300
10 | COc1ccc(OC2O[C@H](CCP(=O)(O)CC#C[Si](C)(C)C)[C@@H](O)[C@H](O)[C@@H]2O)cc1 (stereo partly drawn) [Compound A75, 2-[(2R,3S,4S,5S)-3,4,5-trihydroxy-6-(4-methoxyphenoxy)tetrahydropyran-2-yl]ethyl-(3-trimethylsilylprop-2-ynyl)phosphinic acid] | 10 to 100
11 | CO[C@@H]1O[C@H](CCS(=O)(=O)Nc2ncccn2)[C@@H](O)[C@H](O)[C@@H]1O [Compound A8, N-(pyrimidin-2-yl)-2-((2R,3S,4S,5S,6R)-3,4,5-trihydroxy-6-methoxytetrahydro-2H-pyran-2-yl)ethane-1-sulfonamide] | 10 to 100
12 | CS(=N)(=O)CC[C@H]1O[C@H](O)[C@@H](O)[C@@H](O)[C@@H]1O (stereo partly drawn) [Compound A1, imino(methyl) (2-((2R,3S,4S,5S,6S)-3,4,5,6-tetrahydroxytetrahydro-2H-pyran-2-yl)ethyl)-16-sulfanone] | < 10
13 | COc1ccc(OC2O[C@H](CCP(=O)(O)CC(F)(F)F)[C@@H](O)[C@H](O)[C@@H]2O)cc1 (stereo partly drawn) [Compound A80, (2,2,2-trifluoroethyl) (2-((2R,3S,4S,5S)-3,4,5-trihydroxy-6-(4-methoxyphenoxy)tetrahydro-2H-pyran-2-yl)ethyl)phosphinic acid] | 10 to 100
14 | O=P(O)(O)CC[C@H]1O[C@H](c2cn(CCc3ccccc3)nn2)[C@@H](O)[C@@H](O)[C@@H]1O [Compound A17, (2-((2R,3S,4S,5S,6R)-3,4,5-trihydroxy-6-(1-phenethyl-1H-1,2,3-triazol-4-yl)tetrahydro-2H-pyran-2-yl)ethyl)phosphonic acid] | < 10
15 | C=CCP(=O)(O)CC[C@H]1OC(Oc2ccc(OC)cc2)[C@@H](O)[C@@H](O)[C@@H]1O (stereo partly drawn) [Compound A52, allyl(2-((2R,3S,4S,5S)-3,4,5-trihydroxy-6-(4-methoxyphenoxy)tetrahydro-2H-pyran-2-yl)ethyl)phosphinic acid] | 10 to 100
16 | CP(=O)(O)CC[C@H]1O[C@H](Oc2ccccc2)[C@@H](O)[C@@H](O)[C@@H]1O [Compound A44, methyl(2-((2R,3S,4S,5S,6R)-3,4,5-trihydroxy-6-phenoxytetrahydro-2H-pyran-2-yl)ethyl)phosphinic acid] | 10 to 100
17 | NC[C@H]1O[C@H](Oc2ccccc2)[C@@H](O)[C@@H](O)[C@@H]1O [Compound A2, (2R,3S,4S,5S,6R)-2-(aminomethyl)-6-phenoxytetrahydro-2H-pyran-3,4,5-triol] | 10 to 100
18 | C#CCOc1cccc(CP(=O)(O)CC[C@H]2OC(Oc3ccc(OC)cc3)[C@@H](O)[C@@H](O)[C@@H]2O)c1 (stereo partly drawn) [Compound A59, (3-prop-2-ynoxyphenyl)methyl-[2-[(2R,3S,4S,5S)-3,4,5-trihydroxy-6-(4-methoxyphenoxy)tetrahydropyran-2-yl]ethyl]phosphinic acid] | < 10
19 | O=P(O)(O)CC[C@H]1O[C@H](Oc2ccc3c(c2)Cc2ccccc2-3)[C@@H](O)[C@@H](O)[C@@H]1O [Compound A19, (2-((2R,3S,4S,5S,6R)-6-((9H-fluoren-2-yl)oxy)-3,4,5-trihydroxytetrahydro-2H-pyran-2-yl)ethyl)phosphonic acid] | < 10
20 | O=P(O)(O)CC[C@H]1OC(c2cc3c(cc2O)Cc2ccccc2-3)[C@@H](O)[C@@H](O)[C@@H]1O (stereo partly drawn) [Compound A15, (2-((2R,3S,4S,5S)-3,4,5-trihydroxy-6-(2-hydroxy-9H-fluoren-3-yl)tetrahydro-2H-pyran-2-yl)ethyl)phosphonic acid] | < 10
21 | O=P(O)(O)CC[C@H]1OC(CCc2ccccc2)[C@@H](O)[C@@H](O)[C@@H]1O (stereo partly drawn) [Compound A13, (2-((2R,3S,4R,5S)-3,4,5-trihydroxy-6-phenethyltetrahydro-2H-pyran-2-yl)ethyl)phosphonic acid] | < 10
22 | COc1ccc(OC2O[C@H](CCP(=O)(O)CC3=CCCC3)[C@@H](O)[C@H](O)[C@@H]2O)cc1 (stereo partly drawn) [Compound A78, (cyclopent-1-en-1-ylmethyl) (2-((2R,3S,4S,5S)-3,4,5-trihydroxy-6-(4-methoxyphenoxy)tetrahydro-2H-pyran-2-yl)ethyl)phosphinic acid] | < 10
23 | O=P(O)(CC[C@H]1O[C@H](Oc2ccccc2)[C@@H](O)[C@@H](O)[C@@H]1O)Cc1ccccc1O [Compound A46, (2-hydroxybenzyl) (2-((2R,3S,4S,5S,6R)-3,4,5-trihydroxy-6-phenoxytetrahydro-2H-pyran-2-yl)ethyl)phosphinic acid] | < 10
24 | COc1ccc(OC2O[C@H](CCP(=O)(O)CC3CCCC3)[C@@H](O)[C@H](O)[C@@H]2O)cc1 (stereo partly drawn) [Compound A82, (cyclopentylmethyl) (2-((2R,3S,4S,5S)-3,4,5-trihydroxy-6-(4-methoxyphenoxy)tetrahydro-2H-pyran-2-yl)ethyl)phosphinic acid] | < 10
25 | COc1ccc(O[C@H]2O[C@H](CCP(=O)(O)Cc3c(F)cccc3Cl)[C@@H](O)[C@H](O)[C@@H]2O)cc1 [Compound A51, (2-chloro-6-fluorobenzyl) (2-((2R,3S,4S,5S,6R)-3,4,5-trihydroxy-6-(4-methoxyphenoxy)tetrahydro-2H-pyran-2-yl)ethyl)phosphinic acid] | < 10
